# From patent US20150296790A1, “SILICON-CONTAINING COMPOUND AQUEOUS SOLUTION AND ANTIBACTERIAL/ANTIVIRAL AGENT INCLUDING SAID SOLUTION” (JEX CO., LTD., priority 2012, published 2015)
# Assay: Solubility of CD (clarity and stability, visual)
# Assay type: physicochemical
# Parameters: key to Solubility of CD: Stability: OK: When the aqueous CD solution did not exhibit the conditions such as presence of precipitates and deposits, the solution was considered as stable; NG: When the aqueous CD solution exhibited the conditions such as presence of precipitates and deposits, the solution was not considered as stable; key to Solubility of CD: Clarity: When the CD aqueous solution was clear, the solution was rated as “OK”; When the solution was not clear, the solution was rated as “NG”
# Experimental: “Clarity” in “Solubility of CD” in the tables was determined by sequentially adding the CD and purified water at the respective ratio to a predetermined screw-cap bottle and stirring the mixture in the sealed bottle on a shaker to prepare the respective aqueous CD solution, which was then visually evaluated for clarity immediately after the preparation. When the CD aqueous solution was clear, the solution was rated as “OK”. When the solution was not clear, the solution was rated as “NG”. “Stability” in “Solubility of CD” in the tables was determined by allowing the respective aqueous CD solution after preparation to stand at ambient temperature for a predetermined period and then visually evaluating the conditions (such as presence of precipitates and deposits) of the solution.
# [1] = Ratio of CD Alone 1 w/w % in purified water
# [2] = Ratio of CD Alone 2-6 w/w % in purified water
# [3] = Ratio of CD Alone 7 w/w % in purified water
# [4] = Ratio of CD Alone 8-10 w/w % in purified water
# [5] = Ratio of CD Alone 2-10 w/w % in purified water
# [6] = Ratio of CD Alone 2 w/w % in purified water
# [7] = Ratio of CD Alone 3 w/w % in purified water
# [8] = Ratio of CD Alone 4-5 w/w % in purified water
# [9] = Ratio of CD Alone 6 w/w % in purified water
# [10] = Ratio of CD Alone 7-9 w/w % in purified water
# [11] = Ratio of CD Alone 10 w/w % in purified water
# [12] = Ratio of CD Alone 15 w/w % in purified water
# [13] = Ratio of CD Alone 20 w/w % in purified water
# [14] = Ratio of CD Alone 25 w/w % in purified water
smiles,measurement,setting,value
"OC[C@H]1O[C@@H]2O[C@H]3[C@H](O)[C@@H](O)[C@@H](O[C@H]4[C@H](O)[C@@H](O)[C@@H](O[C@H]5[C@H](O)[C@@H](O)[C@@H](O[C@H]6[C@H](O)[C@@H](O)[C@@H](O[C@H]7[C@H](O)[C@@H](O)[C@@H](O[C@H]1[C@H](O)[C@H]2O)O[C@@H]7CO)O[C@@H]6CO)O[C@@H]5CO)O[C@@H]4CO)O[C@@H]3CO [α, α-cyclodextrin]",Solubility of CD: Clarity,[1],OK
same,Solubility of CD: Stability,[1],OK
same,Solubility of CD: Clarity,[2],OK
same,Solubility of CD: Stability,[2],OK
same,Solubility of CD: Clarity,[3],OK
same,Solubility of CD: Stability,[3],OK
same,Solubility of CD: Clarity,[4],NG
same,Solubility of CD: Stability,[4],NG
"OC[C@H]1O[C@@H]2O[C@H]3[C@H](O)[C@@H](O)[C@@H](O[C@H]4[C@H](O)[C@@H](O)[C@@H](O[C@H]5[C@H](O)[C@@H](O)[C@@H](O[C@H]6[C@H](O)[C@@H](O)[C@@H](O[C@H]7[C@H](O)[C@@H](O)[C@@H](O[C@H]8[C@H](O)[C@@H](O)[C@@H](O[C@H]1[C@H](O)[C@H]2O)O[C@@H]8CO)O[C@@H]7CO)O[C@@H]6CO)O[C@@H]5CO)O[C@@H]4CO)O[C@@H]3CO [β, β-cyclodextrin]",Solubility of CD: Clarity,[1],OK
same,Solubility of CD: Stability,[1],OK
same,Solubility of CD: Clarity,[5],NG
same,Solubility of CD: Stability,[5],NG
"OC[C@H]1O[C@@H]2O[C@H]3[C@H](O)[C@@H](O)[C@@H](O[C@H]4[C@H](O)[C@@H](O)[C@@H](O[C@H]5[C@H](O)[C@@H](O)[C@@H](O[C@H]6[C@H](O)[C@@H](O)[C@@H](O[C@H]7[C@H](O)[C@@H](O)[C@@H](O[C@H]8[C@H](O)[C@@H](O)[C@@H](O[C@H]9[C@H](O)[C@@H](O)[C@@H](O[C@H]1[C@H](O)[C@H]2O)O[C@@H]9CO)O[C@@H]8CO)O[C@@H]7CO)O[C@@H]6CO)O[C@@H]5CO)O[C@@H]4CO)O[C@@H]3CO [γ, γ-cyclodextrin]",Solubility of CD: Clarity,[1],OK
same,Solubility of CD: Stability,[1],OK
same,Solubility of CD: Clarity,[6],OK
same,Solubility of CD: Stability,[6],OK
same,Solubility of CD: Clarity,[7],OK
same,Solubility of CD: Stability,[7],OK
same,Solubility of CD: Clarity,[8],OK
same,Solubility of CD: Stability,[8],OK
same,Solubility of CD: Clarity,[9],OK
same,Solubility of CD: Stability,[9],OK
same,Solubility of CD: Clarity,[10],OK
same,Solubility of CD: Stability,[10],OK
same,Solubility of CD: Clarity,[11],OK
same,Solubility of CD: Stability,[11],OK
same,Solubility of CD: Clarity,[12],NG
same,Solubility of CD: Stability,[12],OK
same,Solubility of CD: Clarity,[13],NG
same,Solubility of CD: Stability,[13],OK
same,Solubility of CD: Clarity,[14],NG
same,Solubility of CD: Stability,[14],NG
